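The compound was tested at five concentrations on cells cultured in 96-well plates, with a 48-hour exposure period. GI50 marks 50% less growth.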 Calls of active or inactive are those of the source. Cut-off read from the data, not from the text of the source: active = GI50 up to about 1.1 µM and inactive = higher.
Key:
Test in all cases: NCI-60 cell line screen, 48 h
OVCAR-8 = tested on: OVCAR-8
SK-OV-3 = tested on: SK-OV-3
NCI-H522 = tested on: NCI-H522
KM12 = tested on: KM12
SK-MEL-2 = tested on: SK-MEL-2
BT-549 = tested on: BT-549
MOLT-4 = tested on: MOLT-4
MDA-MB-435 = tested on: MDA-MB-435
SK-MEL-28 = tested on: SK-MEL-28
DU-145 = tested on: DU-145
786-0 = tested on: 786-0
SNB-19 = tested on: SNB-19
LOX IMVI = tested on: LOX IMVI
TK-10 = tested on: TK-10
HOP-92 = tested on: HOP-92
OVCAR-4 = tested on: OVCAR-4
SF-295 = tested on: SF-295
SW-620 = tested on: SW-620
HT-29 = tested on: HT-29
RXF 393 = tested on: RXF 393

SMILES | GI50 (OVCAR-8) | GI50 (SK-OV-3) | GI50 (NCI-H522) | GI50 (KM12) | GI50 (SK-MEL-2) | GI50 (BT-549) | GI50 (MOLT-4) | GI50 (MDA-MB-435) | GI50 (SK-MEL-28) | GI50 (DU-145) | GI50 (786-0) | GI50 (SNB-19) | GI50 (LOX IMVI) | GI50 (TK-10) | GI50 (HOP-92) | GI50 (OVCAR-4) | GI50 (SF-295) | GI50 (SW-620) | GI50 (HT-29) | GI50 (RXF 393)
Cc1cc(-c2cc(C(C)(C)C)c(O)c(C(C)(C)C)c2)c(C)cc1-c1cc(C(C)(C)C)c(O)c(C(C)(C)C)c1 | > 100 µM (inactive) | > 100 µM (inactive) | > 100 µM (inactive) | > 100 µM (inactive) | > 100 µM (inactive) | > 100 µM (inactive) | > 100 µM (inactive) | 13.6 µM (inactive) | > 100 µM (inactive) | > 100 µM (inactive) | > 100 µM (inactive) | > 100 µM (inactive) | > 100 µM (inactive) | > 100 µM (inactive) | 12.1 µM (inactive) | > 100 µM (inactive) | > 100 µM (inactive) | > 100 µM (inactive) | > 100 µM (inactive) | –
CC(=O)n1nc(-c2ccc3ccccc3c2)nc1C | > 100 µM (inactive) | > 100 µM (inactive) | > 100 µM (inactive) | 23.9 µM (inactive) | > 100 µM (inactive) | 48.6 µM (inactive) | 56.8 µM (inactive) | 33.7 µM (inactive) | – | 94.6 µM (inactive) | > 100 µM (inactive) | – | 57.3 µM (inactive) | > 100 µM (inactive) | – | 91 µM (inactive) | 52.8 µM (inactive) | 32.8 µM (inactive) | > 100 µM (inactive) | > 100 µM (inactive)
COc1cc(C2c3cc4c(c(O)c3C(=O)C3CCC(=O)N32)OCO4)cc(OC)c1OC (stereo unspecified) | > 100 µM (inactive) | 46 µM (inactive) | 16.9 µM (inactive) | 51.9 µM (inactive) | 79.8 µM (inactive) | 32.7 µM (inactive) | 37.9 µM (inactive) | 18.2 µM (inactive) | 49.5 µM (inactive) | > 100 µM (inactive) | 92.5 µM (inactive) | > 100 µM (inactive) | 52.5 µM (inactive) | 67.5 µM (inactive) | 34.4 µM (inactive) | > 100 µM (inactive) | 36.6 µM (inactive) | 45.9 µM (inactive) | 42.9 µM (inactive) | –
Clc1cccc(/N=C/C=C/Nc2cccc(Cl)c2)c1 | 18 µM (inactive) | – | 14.8 µM (inactive) | 14.1 µM (inactive) | – | 16.1 µM (inactive) | 22.2 µM (inactive) | 15.6 µM (inactive) | 16.1 µM (inactive) | 29 µM (inactive) | 15.7 µM (inactive) | > 10 µM (inactive) | 6.32 µM (inactive) | 37.8 µM (inactive) | 42.5 µM (inactive) | 40.4 µM (inactive) | 12.1 µM (inactive) | 22.9 µM (inactive) | 16.7 µM (inactive) | 20.8 µM (inactive)
O=c1onc2n1-c1cc(Cl)ccc1C(=S)N1CSCC21 (stereo unspecified) | > 100 µM (inactive) | > 100 µM (inactive) | > 100 µM (inactive) | 89.7 µM (inactive) | > 100 µM (inactive) | > 100 µM (inactive) | > 100 µM (inactive) | > 100 µM (inactive) | > 100 µM (inactive) | > 100 µM (inactive) | > 100 µM (inactive) | > 100 µM (inactive) | > 100 µM (inactive) | > 100 µM (inactive) | – | > 100 µM (inactive) | > 100 µM (inactive) | > 100 µM (inactive) | > 100 µM (inactive) | > 100 µM (inactive)
CCC(C)c1c(Cl)nc(Cl)nc1Cl (stereo unspecified) | 17.9 µM (inactive) | 36.2 µM (inactive) | 0.582 µM (active) | 1.78 µM (inactive) | 20.9 µM (inactive) | 1.75 µM (inactive) | 0.271 µM (active) | 2.77 µM (inactive) | 7.18 µM (inactive) | 16.3 µM (inactive) | 10.9 µM (inactive) | 16 µM (inactive) | 0.44 µM (active) | 21.3 µM (inactive) | – | 16.9 µM (inactive) | 24 µM (inactive) | 3.71 µM (inactive) | 6.01 µM (inactive) | 8.02 µM (inactive)
Clc1ccc(C2Nc3ccccc3C3=NCCN32)cc1 (stereo unspecified) | 18.3 µM (inactive) | 26.1 µM (inactive) | – | 18.3 µM (inactive) | 19.1 µM (inactive) | 24.3 µM (inactive) | 36.4 µM (inactive) | 16.6 µM (inactive) | 18 µM (inactive) | 39.8 µM (inactive) | 18.5 µM (inactive) | 27.9 µM (inactive) | 17.2 µM (inactive) | 16.8 µM (inactive) | 8.18 µM (inactive) | 30.7 µM (inactive) | 14.8 µM (inactive) | 24.5 µM (inactive) | 11.4 µM (inactive) | 21.1 µM (inactive)
CC(=O)NC1C(OCc2ccccc2)OC(CO)C(O)C1OC(C)C(=O)NC(C(=O)NC(CCC(=O)NCCCNc1ccc([N+](=O)[O-])c2[nH]c3ccccc3c(=O)c12)C(N)=O)C(C)C (stereo unspecified) | > 100 µM (inactive) | > 100 µM (inactive) | 91.6 µM (inactive) | > 100 µM (inactive) | > 100 µM (inactive) | > 100 µM (inactive) | > 100 µM (inactive) | > 100 µM (inactive) | > 100 µM (inactive) | > 100 µM (inactive) | > 100 µM (inactive) | > 100 µM (inactive) | > 100 µM (inactive) | > 100 µM (inactive) | > 100 µM (inactive) | > 100 µM (inactive) | > 100 µM (inactive) | > 100 µM (inactive) | > 100 µM (inactive) | –
CCn1cc2c(=O)n3ncn(-c4ccc(Br)cc4)c3nc2n1 | 78.9 µM (inactive) | > 100 µM (inactive) | > 100 µM (inactive) | > 100 µM (inactive) | > 100 µM (inactive) | > 100 µM (inactive) | > 100 µM (inactive) | > 100 µM (inactive) | > 100 µM (inactive) | > 100 µM (inactive) | 63.2 µM (inactive) | 49.9 µM (inactive) | – | 78.2 µM (inactive) | – | > 100 µM (inactive) | > 100 µM (inactive) | > 100 µM (inactive) | > 100 µM (inactive) | > 100 µM (inactive)
CNc1nnc(CNc2ccc(-c3nnc(NC)n3N)cc2)n1N | > 100 µM (inactive) | > 100 µM (inactive) | – | > 100 µM (inactive) | > 100 µM (inactive) | 12.4 µM (inactive) | > 100 µM (inactive) | > 100 µM (inactive) | > 100 µM (inactive) | > 100 µM (inactive) | > 100 µM (inactive) | > 100 µM (inactive) | > 100 µM (inactive) | > 100 µM (inactive) | > 100 µM (inactive) | > 100 µM (inactive) | > 100 µM (inactive) | > 100 µM (inactive) | > 100 µM (inactive) | > 100 µM (inactive)
CCOC(=O)C1(C/C=C\CBr)CCCC1=O (stereo unspecified) | 30.1 µM (inactive) | 83.9 µM (inactive) | 21.4 µM (inactive) | 32.1 µM (inactive) | 31.3 µM (inactive) | 30.3 µM (inactive) | – | 22.1 µM (inactive) | 47.3 µM (inactive) | 27.5 µM (inactive) | 32.3 µM (inactive) | 38.3 µM (inactive) | 15.7 µM (inactive) | 13.2 µM (inactive) | – | 34.4 µM (inactive) | 60 µM (inactive) | 22.4 µM (inactive) | 29.3 µM (inactive) | 16.6 µM (inactive)
Brc1ccc2nc(-c3cccs3)nc(N3CCN(c4ccccc4)CC3)c2c1 | > 100 µM (inactive) | > 100 µM (inactive) | > 100 µM (inactive) | > 100 µM (inactive) | > 100 µM (inactive) | > 100 µM (inactive) | – | > 100 µM (inactive) | > 100 µM (inactive) | > 100 µM (inactive) | > 100 µM (inactive) | > 100 µM (inactive) | > 100 µM (inactive) | > 100 µM (inactive) | > 100 µM (inactive) | > 100 µM (inactive) | > 100 µM (inactive) | > 100 µM (inactive) | > 100 µM (inactive) | –
COC1C(O)CC(OC2C(C)OC(Oc3cc(O)c4c(O)c5c(cc4c3)C[C@@H]([C@H](OC)C(=O)[C@@H](O)[C@@H](C)O)[C@H](OC3CC(OC4CC(OC6CC(C)(O)C(O)C(C)O6)C(O)C(C)O4)C(O)C(C)O3)C5=O)CC2OC(C)=O)OC1C (stereo partly specified) | 67.1 µM (inactive) | > 100 µM (inactive) | 39.1 µM (inactive) | 88.1 µM (inactive) | 79.3 µM (inactive) | > 100 µM (inactive) | 17.5 µM (inactive) | 34 µM (inactive) | 32.2 µM (inactive) | > 100 µM (inactive) | > 100 µM (inactive) | 33.2 µM (inactive) | 19.5 µM (inactive) | > 100 µM (inactive) | – | > 100 µM (inactive) | > 10 µM (inactive) | > 100 µM (inactive) | 65.2 µM (inactive) | –
O/N=N/c1ccc2ccccc2n1 | > 100 µM (inactive) | > 100 µM (inactive) | > 100 µM (inactive) | > 100 µM (inactive) | > 100 µM (inactive) | > 100 µM (inactive) | > 100 µM (inactive) | > 100 µM (inactive) | > 100 µM (inactive) | > 100 µM (inactive) | > 100 µM (inactive) | > 100 µM (inactive) | > 100 µM (inactive) | > 100 µM (inactive) | – | > 100 µM (inactive) | > 100 µM (inactive) | > 100 µM (inactive) | > 100 µM (inactive) | –
COC(=O)C1(C(=O)OC)Cc2ccc(OC)cc2C2=C1C(=O)c1ccccc1C2=O | 2.4 µM (inactive) | – | 3.45 µM (inactive) | 6.85 µM (inactive) | 5.7 µM (inactive) | 19.1 µM (inactive) | 1.53 µM (inactive) | 1.97 µM (inactive) | 17.1 µM (inactive) | 16.5 µM (inactive) | 4.75 µM (inactive) | 16.9 µM (inactive) | 2.17 µM (inactive) | 18.4 µM (inactive) | 2.69 µM (inactive) | 1.77 µM (inactive) | 3.77 µM (inactive) | 6.47 µM (inactive) | 14.4 µM (inactive) | –

From ChEMBL document CHEMBL1201862, “PubChem BioAssay data set” (2004)
